Laboratory results taken from patent publication EP4603105A1, “PHARMACEUTICAL COMPOSITION CONTAINING CYCLIC COMPOUND HAVING SELECTIVE KRAS INHIBITORY EFFECT AGAINST HRAS AND NRAS” (CHUGAI SEIYAKU KABUSHIKI KAISHA, priority 2022, dated 2024).
pIC50, pKd: −log10 of the molar value.

Legend:
[1] = target: GDP-bound NRAS wild-type protein (Homo sapiens, UniProt P01111); experiment: Binding to NRAS by surface plasmon resonance (SPR), KD and KD ratio to KRAS; conditions: ratio of KD for GDP-bound NRAS wild-type protein to KD for KRAS
Chain of GDP-bound NRAS wild-type protein (P01111 whole entry): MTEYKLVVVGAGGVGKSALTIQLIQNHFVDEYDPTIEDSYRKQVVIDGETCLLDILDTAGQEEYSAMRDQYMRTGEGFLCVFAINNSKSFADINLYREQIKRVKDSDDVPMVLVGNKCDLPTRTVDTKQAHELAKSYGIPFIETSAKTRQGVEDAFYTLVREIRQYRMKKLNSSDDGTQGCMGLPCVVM
Summary of the method: (§1)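 Recombinant RAS proteins bearing a biotinylated Avi tag and loaded with GDP served as the captured ligand, recaptured fresh every cycle. Binding responses were referenced to an uncoated surface and a buffer-only blank cycle. Dissociation constants were obtained by 1:1 model fitting at 30°C.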

[2] = test system: human lung cancer strain NCI-H441; experiment: NCI-H441 cell proliferation inhibitory activity (CellTiter-Glo, 4 days); type: cell-based; conditions: NCI-H441 cells, 4 days, read-out: NCl-H441 IC50
Summary of the method: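 Signal came from […] measured per well once the reagent was added. Beforehand, cells were cultured at 37°C and 5% carbon dioxide on a compound series serially diluted in dimethyl sulfoxide.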

[3] = target: HRAS wild-type protein (Homo sapiens, UniProt P01112); experiment: Binding to HRAS by surface plasmon resonance (SPR), KD and KD ratio to KRAS; conditions: ratio of KD for HRAS wild-type protein to KD for KRAS
Chain of HRAS wild-type protein (P01112 whole entry): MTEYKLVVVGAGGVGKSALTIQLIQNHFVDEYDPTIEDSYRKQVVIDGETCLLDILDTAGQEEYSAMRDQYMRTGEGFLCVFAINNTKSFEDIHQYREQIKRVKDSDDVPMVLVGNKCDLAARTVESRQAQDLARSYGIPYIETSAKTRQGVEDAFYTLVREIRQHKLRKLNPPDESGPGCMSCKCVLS
Summary of the method: as §1

[4] = target: GDP-bound KRAS wild-type protein (Homo sapiens, UniProt P01116); experiment: Binding to KRAS by surface plasmon resonance (SPR), dissociation constant KD; conditions: 1:1 binding model
Chain of GDP-bound KRAS wild-type protein (P01116 1-188 isoform P01116-2): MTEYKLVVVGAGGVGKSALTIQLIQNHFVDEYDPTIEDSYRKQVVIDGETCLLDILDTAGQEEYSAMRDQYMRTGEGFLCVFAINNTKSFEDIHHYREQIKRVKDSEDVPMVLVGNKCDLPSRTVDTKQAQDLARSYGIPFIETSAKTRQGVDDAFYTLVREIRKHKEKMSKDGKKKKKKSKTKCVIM
Summary of the method: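 Biotinylated GDP-bound RAS was captured at about 100–300 RU. Running buffer: HBS pH 7.4, 10 mM MgCl2, 10 µM GDP, 1 mM DTT, 0.01% Tween 20, 4% DMSO.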

SMILES: CCO[C@H](C)[C@@H]1NC(=O)[C@H](CC(C)C)N(C)C(=O)C[C@@H](C(=O)N(C)C)N(C)C(=O)[C@H](C2CCCC2)N(C)C(=O)C2(CC(C)(C)C2)NC(=O)[C@@H]2C[C@H](C)CN2C(=O)[C@H](CCc2ccc(C(F)(F)F)c(OC)c2)NC(=O)CN(C)C(=O)[C@H](Cc2ccc(C)cc2)N2CC/C=C\C[C@@H](C2=O)N(C)C(=O)CN(C)C1=O [PP2412]
- NRAS /KRAS [1]: A (a compound having 10 or more and less than 20 is denoted as A)
- pIC50 [2]: 7.68
- HRAS /KRAS [3]: B (a compound having 3 or more and less than 10 is denoted as B)
- pKd [4]: 9.82

SMILES: CCO[C@H](C)[C@@H]1NC(=O)[C@H](CC(C)C)N(C)C(=O)C[C@@H](C(=O)N(C)CC)N(C)C(=O)[C@H](C2CCCC2)N(C)C(=O)C2(CC(C)(C)C2)NC(=O)[C@@H]2C[C@H](C)CN2C(=O)[C@H](CCc2ccc(C(F)(F)F)c(OC)c2)NC(=O)CN(C)C(=O)[C@H](Cc2ccc(C)cc2)N2CC/C=C\C[C@@H](C2=O)N(C)C(=O)CN(C)C1=O [PP2413]
- NRAS /KRAS [1]: A (a compound having 10 or more and less than 20 is denoted as A)
- pIC50 [2]: 6.94
- HRAS /KRAS [3]: A (a compound having 10 or more and less than 20 is denoted as A)
- pKd [4]: 9.60

SMILES: CCO[C@H](C)[C@@H]1NC(=O)[C@H](CC(C)C)N(C)C(=O)C[C@@H](C(=O)N(C)CC)N(C)C(=O)[C@H](C2CCCC2)N(C)C(=O)C2(CC(C)(C)C2)NC(=O)[C@@H]2C[C@H](C)CN2C(=O)[C@H](CCc2cc(F)c(C(F)(F)F)c(F)c2)NC(=O)CN(C)C(=O)[C@H](Cc2ccc(C)cc2)N2CC/C=C\C[C@@H](C2=O)N(C)C(=O)CN(C)C1=O [PP2414]
- NRAS /KRAS [1]: A (a compound having 10 or more and less than 20 is denoted as A)
- pIC50 [2]: 8.01
- HRAS /KRAS [3]: A (a compound having 10 or more and less than 20 is denoted as A)
- pKd [4]: 9.48

SMILES: CCCO[C@H](C)[C@@H]1NC(=O)[C@H](CC(C)C)N(C)C(=O)C[C@@H](C(=O)N(C)C)N(C)C(=O)[C@H](C2CCCC2)N(C)C(=O)C2(CC(C)(C)C2)NC(=O)[C@@H]2C[C@H](C)CN2C(=O)[C@H](CCc2ccc(C(F)(F)F)c(OC)c2)NC(=O)CN(C)C(=O)[C@H](Cc2ccc(C)cc2)N2CC/C=C\C[C@@H](C2=O)N(C)C(=O)CN(C)C1=O [PP2415]
- NRAS /KRAS [1]: AA (a compound having 20 or more is denoted as AA)
- pIC50 [2]: 7.99
- HRAS /KRAS [3]: A (a compound having 10 or more and less than 20 is denoted as A)
- pKd [4]: 10.03

SMILES: CCCO[C@H](C)[C@@H]1NC(=O)[C@H](CC(C)C)N(C)C(=O)C[C@@H](C(=O)N(C)CC)N(C)C(=O)[C@H](C2CCCC2)N(C)C(=O)C2(CC(C)(C)C2)NC(=O)[C@@H]2C[C@H](C)CN2C(=O)[C@H](CCc2ccc(C(F)(F)F)c(OC)c2)NC(=O)CN(C)C(=O)[C@H](Cc2ccc(C)cc2)N2CC/C=C\C[C@@H](C2=O)N(C)C(=O)CN(C)C1=O [PP2416]
- NRAS /KRAS [1]: A (a compound having 10 or more and less than 20 is denoted as A)
- pIC50 [2]: 7.48
- HRAS /KRAS [3]: B (a compound having 3 or more and less than 10 is denoted as B)
- pKd [4]: 9.54

SMILES: CCO[C@H](C)[C@@H]1NC(=O)[C@H](CC(C)C)N(C)C(=O)C[C@@H](C(=O)N(C)C)N(C)C(=O)[C@H](C2CCCC2)N(C)C(=O)C2(CC(C)(C)C2)NC(=O)[C@@H]2C[C@H](C)CN2C(=O)[C@H](CCc2ccc(C(F)(F)F)c(OC)c2)NC(=O)CN(C)C(=O)[C@H](Cc2ccc(C)cc2)N2CC/C=C\C[C@@H](C2=O)N(C)C(=O)[C@@H]2CCCN2C1=O [PP2418]
- NRAS /KRAS [1]: A (a compound having 10 or more and less than 20 is denoted as A)
- pIC50 [2]: 6.88
- HRAS /KRAS [3]: B (a compound having 3 or more and less than 10 is denoted as B)
- pKd [4]: 9.01

SMILES: CCCO[C@H](C)[C@@H]1NC(=O)[C@H](COCC)N(C)C(=O)C[C@@H](C(=O)N(C)CC)N(C)C(=O)[C@H](C2CCCC2)N(C)C(=O)C2(CC(C)(C)C2)NC(=O)[C@@H]2C[C@H](C)CN2C(=O)[C@H](CCc2ccc(C(F)(F)F)c(OC)c2)NC(=O)CN(C)C(=O)[C@H](Cc2ccc(C)cc2)N2CC/C=C\C[C@@H](C2=O)N(C)C(=O)CN(C)C1=O [PP2425]
- NRAS /KRAS [1]: AA (a compound having 20 or more is denoted as AA)
- pIC50 [2]: 7.29
- HRAS /KRAS [3]: A (a compound having 10 or more and less than 20 is denoted as A)
- pKd [4]: 9.64

SMILES: CCCO[C@H](C)[C@@H]1NC(=O)[C@H](COCC)N(C)C(=O)C[C@@H](C(=O)N(C)CC)N(C)C(=O)[C@H](C2CCCC2)N(C)C(=O)C2(CC(C)(C)C2)NC(=O)[C@@H]2C[C@H](C)CN2C(=O)[C@H](CCc2cc(F)c(C(F)(F)F)c(F)c2)NC(=O)CN(C)C(=O)[C@H](Cc2ccc(C)cc2)N2CC/C=C\C[C@@H](C2=O)N(C)C(=O)CN(C)C1=O [PP2426]
- NRAS /KRAS [1]: AA (a compound having 20 or more is denoted as AA)
- pIC50 [2]: 7.32
- HRAS /KRAS [3]: A (a compound having 10 or more and less than 20 is denoted as A)
- pKd [4]: 9.51

SMILES: CCOC[C@H]1C(=O)N[C@@H]([C@@H](C)CC)C(=O)N2CCC[C@H]2C(=O)N(C)[C@H]2C/C=C\CCN(C2=O)[C@@H](Cc2ccc(C)cc2)C(=O)N(C)CC(=O)N[C@@H](CCc2ccc(C(F)(F)F)c(OC)c2)C(=O)N2C[C@@H](C)C[C@H]2C(=O)NC2(CC(C)(C)C2)C(=O)N(C)[C@@H](C2CCCC2)C(=O)N(C)[C@H](C(=O)N(C)CC)CC(=O)N1C [PP2427]
- NRAS /KRAS [1]: AA (a compound having 20 or more is denoted as AA)
- pIC50 [2]: 7.44
- HRAS /KRAS [3]: A (a compound having 10 or more and less than 20 is denoted as A)
- pKd [4]: 9.15

SMILES: CCOC[C@H]1C(=O)N[C@@H]([C@@H](C)CC)C(=O)N2CCC[C@H]2C(=O)N(C)[C@H]2C/C=C\CCN(C2=O)[C@@H](Cc2ccc(C)cc2)C(=O)N(C)CC(=O)N[C@@H](CCc2cc(F)c(C(F)(F)F)c(F)c2)C(=O)N2C[C@H](OCC)C[C@H]2C(=O)NC2(CC(C)(C)C2)C(=O)N(C)[C@@H](C2CCCC2)C(=O)N(C)[C@H](C(=O)N(C)CC)CC(=O)N1C [PP2428]
- NRAS /KRAS [1]: A (a compound having 10 or more and less than 20 is denoted as A)
- pIC50 [2]: 8.32
- HRAS /KRAS [3]: A (a compound having 10 or more and less than 20 is denoted as A)
- pKd [4]: 9.21

SMILES: CCCOC[C@H]1C(=O)N[C@@H]([C@@H](C)CC)C(=O)N2CCC[C@H]2C(=O)N(C)[C@H]2C/C=C\CCN(C2=O)[C@@H](Cc2ccc(C)cc2)C(=O)N(C)CC(=O)N[C@@H](CCc2cc(F)c(C(F)(F)F)c(F)c2)C(=O)N2C[C@H](C)C[C@H]2C(=O)NC2(CC(C)(C)C2)C(=O)N(C)[C@@H](C2CCCC2)C(=O)N(C)[C@H](C(=O)N(C)CC)CC(=O)N1C [PP2430]
- NRAS /KRAS [1]: AA (a compound having 20 or more is denoted as AA)
- pIC50 [2]: 7.48
- HRAS /KRAS [3]: A (a compound having 10 or more and less than 20 is denoted as A)
- pKd [4]: 8.85

SMILES: CCCOC[C@H]1C(=O)N[C@@H]([C@@H](C)OCC)C(=O)N2CCC[C@H]2C(=O)N(C)[C@H]2C/C=C\CCN(C2=O)[C@@H](Cc2ccc(C)cc2)C(=O)N(C)CC(=O)N[C@@H](CCc2cc(F)c(C(F)(F)F)c(F)c2)C(=O)N2C[C@H](OCC)C[C@H]2C(=O)NC2(CC(C)(C)C2)C(=O)N(C)[C@@H](C2CCCC2)C(=O)N(C)[C@H](C(=O)N(C)CC)CC(=O)N1C [PP2432]
- NRAS /KRAS [1]: A (a compound having 10 or more and less than 20 is denoted as A)
- pIC50 [2]: 6.86
- HRAS /KRAS [3]: A (a compound having 10 or more and less than 20 is denoted as A)
- pKd [4]: 8.85

SMILES: CCCO[C@H](C)[C@@H]1NC(=O)[C@H](COCC)N(C)C(=O)C[C@@H](C(=O)N(C)CC)N(C)C(=O)[C@H](C2CCCC2)N(C)C(=O)C2(CC(C)(C)C2)NC(=O)[C@@H]2C[C@@H](OCC)CN2C(=O)[C@H](CCc2cc(F)c(C(F)(F)F)c(F)c2)NC(=O)CN(C)C(=O)[C@H](Cc2ccc(C)cc2)N2CC/C=C\C[C@@H](C2=O)N(C)C(=O)[C@@H]2CCCN2C1=O [PP2436]
- NRAS /KRAS [1]: A (a compound having 10 or more and less than 20 is denoted as A)
- pIC50 [2]: 6.90
- HRAS /KRAS [3]: A (a compound having 10 or more and less than 20 is denoted as A)
- pKd [4]: 8.80

SMILES: CCOC[C@H]1C(=O)N[C@@H]([C@@H](C)CC)C(=O)N(C)CC(=O)N(C)[C@H]2C/C=C\CCN(C2=O)[C@@H](Cc2ccc(C)cc2)C(=O)N(C)CC(=O)N[C@@H](CCc2cc(F)c(C(F)(F)F)c(F)c2)C(=O)N2C[C@@H](C)C[C@H]2C(=O)NC2(CC(C)(C)C2)C(=O)N(C)[C@@H](C2CCCC2)C(=O)N(C)[C@H](C(=O)N(C)C)CC(=O)N1C [PP2439]
- NRAS /KRAS [1]: A (a compound having 10 or more and less than 20 is denoted as A)
- pIC50 [2]: 8.18
- HRAS /KRAS [3]: A (a compound having 10 or more and less than 20 is denoted as A)
- pKd [4]: 9.92
